Target: EGFR (UniProt P00533)
Sequence (P00533 whole entry, looked up): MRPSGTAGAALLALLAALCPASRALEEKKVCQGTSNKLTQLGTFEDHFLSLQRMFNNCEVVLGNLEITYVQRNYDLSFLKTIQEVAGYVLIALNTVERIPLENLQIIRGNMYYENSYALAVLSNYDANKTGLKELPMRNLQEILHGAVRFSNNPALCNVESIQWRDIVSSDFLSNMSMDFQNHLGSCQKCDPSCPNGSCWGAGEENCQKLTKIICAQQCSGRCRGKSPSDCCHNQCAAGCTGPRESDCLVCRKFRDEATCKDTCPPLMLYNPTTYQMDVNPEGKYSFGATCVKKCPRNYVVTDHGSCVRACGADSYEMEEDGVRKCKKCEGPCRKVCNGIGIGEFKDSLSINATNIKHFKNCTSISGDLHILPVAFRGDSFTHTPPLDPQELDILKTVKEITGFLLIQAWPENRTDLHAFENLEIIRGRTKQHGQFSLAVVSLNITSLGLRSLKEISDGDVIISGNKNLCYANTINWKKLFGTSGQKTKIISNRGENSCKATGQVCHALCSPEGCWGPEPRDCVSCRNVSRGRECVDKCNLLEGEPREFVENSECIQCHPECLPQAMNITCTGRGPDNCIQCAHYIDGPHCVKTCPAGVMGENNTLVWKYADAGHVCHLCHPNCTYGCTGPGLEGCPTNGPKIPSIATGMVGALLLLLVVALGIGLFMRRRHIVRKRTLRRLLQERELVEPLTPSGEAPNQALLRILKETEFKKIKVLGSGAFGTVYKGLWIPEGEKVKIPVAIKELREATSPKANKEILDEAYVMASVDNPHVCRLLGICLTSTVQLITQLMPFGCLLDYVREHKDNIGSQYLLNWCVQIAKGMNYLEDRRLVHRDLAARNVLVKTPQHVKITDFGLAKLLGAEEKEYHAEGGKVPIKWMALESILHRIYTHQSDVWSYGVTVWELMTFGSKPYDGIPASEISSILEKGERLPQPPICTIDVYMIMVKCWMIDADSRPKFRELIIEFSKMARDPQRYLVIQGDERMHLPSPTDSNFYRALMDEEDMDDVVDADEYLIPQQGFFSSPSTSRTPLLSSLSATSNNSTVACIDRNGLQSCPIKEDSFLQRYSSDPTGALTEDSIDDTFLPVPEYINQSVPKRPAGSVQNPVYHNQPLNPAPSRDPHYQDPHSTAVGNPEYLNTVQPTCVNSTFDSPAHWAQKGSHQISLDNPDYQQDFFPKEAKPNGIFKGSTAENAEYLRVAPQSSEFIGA

| SMILES | IC50 [µM] |
| --- | --- |
| COc1ccc(Nc2ccnc(Nc3ccc(OC)c(OC)c3)n2)cc1OC | ≥ 10 |
| COc1cc(Nc2nccc(-n3c(=O)[nH]c4ccccc43)n2)cc(OC)c1OC | ≥ 10 |
| Clc1cccc(Nc2ccnc(Nc3cccc(Cl)c3)n2)c1 | ≥ 10 |
| Cc1cccc(Nc2nccc(Nc3cccc(Br)c3)n2)c1 | ≥ 10 |
| COc1cc(Nc2nccc(-n3ccc4ccccc43)n2)cc(OC)c1OC | ≥ 10 |
| COc1cc(Nc2nccc(-n3c(=O)oc4ccccc43)n2)cc(OC)c1OC | ≥ 10 |
| Cc1cccc(Nc2ccnc(Nc3cccc(Br)c3)n2)c1 | ≥ 10 |

The remaining lines, values ahead:

| IC50 [µM] | SMILES |
| --- | --- |
| ≥ 10 | COc1cc(Nc2nccc(-n3ccc(-c4ccc(Cl)cc4)n3)n2)cc(OC)c1OC |
| 5 to 10 | COc1ccc(-c2ccn(-c3ccnc(Nc4cc(OC)c(OC)c(OC)c4)n3)n2)cc1 |
| ≥ 10 | COc1cc(Nc2ccnc(-n3ccc4ccccc43)n2)cc(OC)c1OC |
| 5 to 10 | COc1cc(Nc2ccnc(Nc3ccc(Oc4ccccc4)cc3)n2)cc(OC)c1OC |
| 5 to 10 | COc1cc(Nc2nccc(Nc3cc(C(C)(C)C)n[nH]3)n2)cc(OC)c1OC |
| ≥ 10 | COc1cc(Nc2nccc(-n3c(N)nc4ccccc43)n2)cc(OC)c1OC |
| ≥ 10 | COc1cc(Nc2ccnc(Nc3ccc(OCc4ccccc4)cc3)n2)cc(OC)c1OC |
| < 1.5 | COc1cc(Nc2nccc(Nc3ccc4c(cnn4Cc4ccccc4)c3)n2)cc(OC)c1OC |
| 1.5 to 5 | COc1cc(Nc2ccnc(Nc3ccc4c(cnn4Cc4ccccc4)c3)n2)cc(OC)c1OC |

Reference: the Kinase Knowledgebase extract (Sharma et al. 2016)
